Values after ≈ are worked out from the molar mass of the structure shown.
Tests used:
[1] = system: Staphylococcus aureus ATCC 6538 P LRP 39; test: Bacteriostatic power in liquid medium (MIC); format: cell-based; settings: Staphylococcus aureus, ATCC6538; liquid medium; read-out: Minimum inhibiting concentration
Excerpt: (§1) the bacteriostatic power, expressed as the minimum inhibiting concentration (MIC) against both aerobic and anaerobic, Gram positive and Gram negative, bacterial stocks: the related results are reported in the tables 2 and 3.

[2] = system: Streptococcus pyogenes ATCC 8668 LRP 34; test: Bacteriostatic power in liquid medium (MIC); format: cell-based; settings: Streptococcus pyogenes, ATCC8668; liquid medium; read-out: Minimum inhibiting concentration
Excerpt: as §1

[3] = system: Corynebacterium diphteriae LRP 24; test: Bacteriostatic power in liquid medium (MIC); format: cell-based; settings: Corynebacterium, LRP24; liquid medium; read-out: Minimum inhibiting concentration
Excerpt: as §1

[4] = system: Streptococcus pneumoniae ATCC 6303 LRP 35; test: Bacteriostatic power in liquid medium (MIC); format: cell-based; settings: Streptococcus pneumoniae, ATCC6303; liquid medium; read-out: Minimum inhibiting concentration
Excerpt: as §1

[5] = system: Streptococcus faecalis subs. zymogenes ATCC 12958 LRP 61; test: Bacteriostatic power in liquid medium (MIC); format: cell-based; settings: Enterococcus faecalis, ATCC12958; liquid medium; read-out: Minimum inhibiting concentration
Excerpt: as §1

[6] = system: Streptococcus faecalis LRP 7; test: Bacteriostatic power in solid medium (MIC); format: cell-based; settings: Enterococcus faecalis, LRP7; solid medium; read-out: Minimum inhibiting concentration
Excerpt: as §1

[7] = system: Acholeplasma laidlawii ATCC 23206 LRP 204; test: Bacteriostatic power in solid medium (MIC); format: cell-based; settings: Acholeplasma laidlawii, ATCC23206; solid medium; read-out: Minimum inhibiting concentration
Excerpt: as §1

[8] = system: Micrococcus luteus ATCC 15957 LRP 193; test: Bacteriostatic power in solid medium (MIC); format: cell-based; settings: Micrococcus luteus, ATCC15957; solid medium; Erythromycin resistant; read-out: Minimum inhibiting concentration
Excerpt: as §1

[9] = system: Staphylococcus aureus ATCC 6538P LRP 14; test: Bacteriostatic power in solid medium (MIC); format: cell-based; settings: Staphylococcus aureus, ATCC6538P; solid medium; Penycilline resistant; read-out: Minimum inhibiting concentration
Excerpt: as §1

[10] = system: Proteus vulgaris ATCC 6380 LRP 13; test: Bacteriostatic power in solid medium (MIC); format: cell-based; settings: Proteus vulgaris, ATCC6380; solid medium; read-out: Minimum inhibiting concentration
Excerpt: as §1

[11] = system: Neisseria gonorrhoeae ATCC 19424 LRP 214; test: Bacteriostatic power in solid medium (MIC); format: cell-based; settings: Neisseria gonorrhoeae, ATCC19424; solid medium; read-out: Minimum inhibiting concentration
Excerpt: as §1

[12] = system: Streptococcus pyogenes ATCC 8668 LRP 34; test: Bacteriostatic power in solid medium (MIC); format: cell-based; settings: Streptococcus pyogenes, ATCC8668; solid medium; read-out: Minimum inhibiting concentration
Excerpt: as §1

[13] = system: Pseudomonas aeruginosa LRP 9; test: Bacteriostatic power in solid medium (MIC); format: cell-based; settings: Pseudomonas aeruginosa, LRP9; solid medium; read-out: Minimum inhibiting concentration
Excerpt: as §1

Shigella sonnei LRP 5 = test: Bacteriostatic power in solid medium (MIC); format: cell-based; settings: LRP5, read-out: Minimum inhibiting concentration
Excerpt: as §1

[14] = system: Streptococcus pneumoniae ATCC 6303 LRP 52; test: Bacteriostatic power in solid medium (MIC); format: cell-based; settings: Streptococcus pneumoniae, ATCC6303; solid medium; read-out: Minimum inhibiting concentration
Excerpt: as §1

[15] = system: Corynebacterium diphteriae LRP 24; test: Bacteriostatic power in solid medium (MIC); format: cell-based; settings: Corynebacterium, LRP24; solid medium; read-out: Minimum inhibiting concentration
Excerpt: as §1

[16] = system: Streptococcus pneumoniae ATCC 6303 LRP 35; test: Bacteriostatic power in solid medium (MIC); format: cell-based; settings: Streptococcus pneumoniae, ATCC6303; solid medium; read-out: Minimum inhibiting concentration
Excerpt: as §1

[17] = system: Staphylococcus aureus ATCC 6538P LRP 39; test: Bacteriostatic power in solid medium (MIC); format: cell-based; settings: Staphylococcus aureus, ATCC6538P; solid medium; read-out: Minimum inhibiting concentration
Excerpt: as §1

[18] = system: Streptococcus faecalis subsp. zymogenes ATCC 12958 LRP 61; test: Bacteriostatic power in solid medium (MIC); format: cell-based; settings: Enterococcus faecalis, ATCC12958; solid medium; read-out: Minimum inhibiting concentration
Excerpt: as §1

[19] = system: Bacteroides fragilis ATCC 23745 LRP 205; test: Bacteriostatic power in solid medium (MIC); format: cell-based; settings: Bacteroides fragilis, ATCC23745; solid medium; anaerobic; read-out: Minimum inhibiting concentration
Excerpt: as §1

[20] = system: Fusobacteriumnecrophroum ATCC 27852 LRP 210; test: Bacteriostatic power in solid medium (MIC); format: cell-based; settings: read-out: Minimum inhibiting concentration
Excerpt: as §1

Bacillus subtilis LRP 25 = test: Bacteriostatic power in solid medium (MIC); format: cell-based; settings: Bacillus subtilis, LRP25; solid medium; read-out: Minimum inhibiting concentration
Excerpt: as §1

[21] = system: Mycoplasma hominis I ATCC 14027 LRP 211; test: Bacteriostatic power in solid medium (MIC); format: cell-based; settings: Metamycoplasma hominis, ATCC14027; solid medium; read-out: Minimum inhibiting concentration
Excerpt: as §1

[22] = system: Staphylococcus aureus ATCC 14154 LRP 78; test: Bacteriostatic power in solid medium (MIC); format: cell-based; settings: Staphylococcus aureus, ATCC14154; solid medium; Erythromycin resistant; read-out: Minimum inhibiting concentration
Excerpt: as §1

[23] = system: Micrococcus luteus ATCC 9341 LRP 6; test: Bacteriostatic power in solid medium (MIC); format: cell-based; settings: Micrococcus luteus, ATCC9341; solid medium; read-out: Minimum inhibiting concentration
Excerpt: as §1

Escherichia coli LRP 50 = test: Bacteriostatic power in solid medium (MIC); format: cell-based; settings: Escherichia coli, LRP50, read-out: Minimum inhibiting concentration
Excerpt: as §1

[24] = system: Streptococcus pneumoniae ATCC 6303 LRP 53; test: Bacteriostatic power in solid medium (MIC); format: cell-based; settings: Streptococcus pneumoniae, ATCC6303; solid medium; read-out: Minimum inhibiting concentration
Excerpt: as §1

[25] = system: Haemophilus influenzae ATCC 19418 LRP 213; test: Bacteriostatic power in solid medium (MIC); format: cell-based; settings: Haemophilus influenzae, ATCC19418, read-out: Minimum inhibiting concentration
Excerpt: as §1

[26] = system: Streptococcus pyogenes ATCC 8668 LRP 197; test: Bacteriostatic power in solid medium (MIC); format: cell-based; settings: Streptococcus pyogenes, ATCC8668; solid medium; read-out: Minimum inhibiting concentration
Excerpt: as §1

[27] = system: Klelsiella pneumoniae LRP 54; test: Bacteriostatic power in solid medium (MIC); format: cell-based; settings: solid medium; read-out: Minimum inhibiting concentration
Excerpt: as §1

[28] = system: Streptococcus faecalis subs. zymogenes LRP 61; test: Minimum bactericidal concentration (MBC); format: cell-based
Excerpt: (§2) the bacterial power, expressed as the minimum bactericidal power (MBC) against some Gram positive aerobic stocks (table 5).

[29] = system: Staphylococcus aureus ATCC 6538 P LRP 39; test: Minimum bactericidal concentration (MBC); format: cell-based
Excerpt: as §2

[30] = system: Streptococcus pyogenes ATCC 8668 LRP 34; test: Minimum bactericidal concentration (MBC); format: cell-based
Excerpt: as §2

[31] = system: Corynebacterium diphteriae LRP 24; test: Minimum bactericidal concentration (MBC); format: cell-based
Excerpt: as §2

[32] = system: Streptococcus pneumoniae ATCC 6303 LRP 35; test: Minimum bactericidal concentration (MBC); format: cell-based
Excerpt: as §2

[33] = Stability in acidic environment at 25° C. (half-life of initial microbiological activity); format: physicochemical; settings: aqueous solution
Procedure: Stability in acidic environnment at 25° C. of the novel
Note: t 1/2 represents the time for reducing to one half the initial powe
of the antibiotic determined by microbiological method through diffusion
on a plate using the test stock Microccocus luteus (Sarcina lutea) ATCC

Salmonella typhy LRP 8 = test: microbe, parasite or virus in culture; format: cell-based; settings: LRP8, solid medium, read-out: Minimum inhibiting concentration
Excerpt: as §1

[34] = system: Clostridium perfrigens ATCC 3624 LRP 206; test: microbe, parasite or virus in culture; format: cell-based; settings: ATCC3624, solid medium, anaerobic, read-out: Minimum inhibiting concentration
Excerpt: as §1

For `CC[C@H]1OC(=O)[C@H](C)[C@@H](O[C@H]2C[C@@](C)(O)[C@@H](O)[C@H](C)O2)[C@H](C)[C@@H](O[C@@H]2O[C@H](C)C[C@H](N(C)C)[C@H]2O)[C@](C)(O)C[C@](C)(F)C(=O)[C@H](C)[C@@H](O)[C@]1(C)O` [P-80205, (8S)-8-fluoroerythromycin C], the MIC [1] was 0.195 µg/mL (≈ 0.264 µM), the MIC [2] was 0.049 µg/mL (≈ 0.0664 µM) and the MIC [3] was 0.049 µg/mL (≈ 0.0664 µM). For the same compound, the MIC [4] was 0.097 µg/mL (≈ 0.131 µM), the MIC [5] was 0.39 µg/mL (≈ 0.529 µM) and the MIC [6] was 0.097 µg/mL (≈ 0.131 µM). For the same compound, the MIC [7] was 3.12 µg/mL (≈ 4.23 µM), the MIC [8] was 25 µg/mL (≈ 33.9 µM) and the MIC [9] was 0.097 µg/mL (≈ 0.131 µM). It also gave an MIC [10] of 25 µg/mL (≈ 33.9 µM), an MIC [11] of 0.195 µg/mL (≈ 0.264 µM) and an MIC [12] of 0.024 µg/mL (≈ 0.0325 µM). The MIC [13] was 25 µg/mL (≈ 33.9 µM), the MIC (Shigella sonnei LRP 5) was 25 µg/mL (≈ 33.9 µM) and the MIC [14] was 0.012 µg/mL (≈ 0.0163 µM). It also gave an MIC [15] of 0.012 µg/mL (≈ 0.0163 µM), an MIC [16] of 0.024 µg/mL (≈ 0.0325 µM) and an MIC [17] of 0.097 µg/mL (≈ 0.131 µM). For the same compound, the MIC [18] was 0.097 µg/mL (≈ 0.131 µM), the MIC [19] was 0.78 µg/mL (≈ 1.06 µM) and the MIC [20] was 12.5 µg/mL (≈ 16.9 µM). The MIC (Bacillus subtilis LRP 25) was 0.097 µg/mL (≈ 0.131 µM), the MIC [21] was 25 µg/mL (≈ 33.9 µM) and the MIC [22] was 25 µg/mL (≈ 33.9 µM). It also gave an MIC [23] of 0.012 µg/mL (≈ 0.0163 µM), an MIC (Escherichia coli LRP 50) of 12.5 µg/mL (≈ 16.9 µM) and an MIC [24] of 0.024 µg/mL (≈ 0.0325 µM). For the same compound, the MIC [25] was 12.5 µg/mL (≈ 16.9 µM), the MIC [26] was 0.024 µg/mL (≈ 0.0325 µM) and the MIC [27] was 25 µg/mL (≈ 33.9 µM). For the same compound, the MBC/MIC [28] was > 8, the MBC ([28]; Enterococcus faecalis, read-out: Minimum bactericidal concentration (MBC)) was > 3.12 µg/mL and the MBC/MIC [29] was 16. The MBC ([29]; Staphylococcus aureus, ATCC6538, read-out: Minimum bactericidal concentration (MBC)) was 3.12 µg/mL (≈ 4.23 µM), the MBC/MIC [30] was 16 and the MBC ([30]; Streptococcus pyogenes, ATCC8668, read-out: Minimum bactericidal concentration (MBC)) was 0.78 µg/mL (≈ 1.06 µM). It also gave an MBC/MIC [31] of 8, an MBC ([31]; Corynebacterium, LRP24, read-out: Minimum bactericidal concentration (MBC)) of 0.39 µg/mL (≈ 0.529 µM) and an MBC/MIC [32] of 2. It also gave an MBC ([32]; Streptococcus pneumoniae, ATCC6303, read-out: Minimum bactericidal concentration (MBC)) of 0.195 µg/mL (≈ 0.264 µM), a half-life ([33]; pH 2) of 1.65 h and a half-life ([33]; pH 3) of 41.5 h. It also gave an MIC (Salmonella typhy LRP 8) of 12.5 µg/mL (≈ 16.9 µM) and an MIC [34] of 6.25 µg/mL (≈ 8.47 µM).

Reference: patent publication US4439426A, “Semisynthetic macrolidic antibiotics, intermediate compounds for their preparation and related pharmaceutical compositions containing them” (priority 1981, dated 1984)
